PMC4850295, “Using a Genetically Encoded Sensor to Identify Inhibitors of Toxoplasma gondii Ca^2+ Signaling” (The Journal of Biological Chemistry, 2016)
“And” between values parts separate entries of the source, which are not always exact repeats. Identical values can stand only once. Like-named read-outs stand apart in the source and are kept apart here.

Test system: T1, GCaMP5-expressing T. gondii
T1 construct: whole extracellular parasites expressing GCaMP5 Ca2+ sensor
Design: species or system GCaMP5-expressing Toxoplasma gondii, extracellular; GCaMP5 fluorescence (cytosolic Ca2+) after 100 uM zaprinast in compound-pretreated extracellular parasites, background-subtracted, relative to zaprinast alone
Details: 100 uM zaprinast stimulation, 10 min pretreatment, mean of two replicates, 0.23 h
Method in brief: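 Read-out is GCaMP5 calcium fluorescence (ex 485/em 525 nm) taken 4 min after 100 μM zaprinast at 37 °C, following 10 min compound pretreatment at 10 μM in duplicate biological replicates. Values are basal-subtracted fold change versus zaprinast-only controls; parasites held extracellular in Ringer's solution.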

| SMILES | fold change in fluorescence relative to zaprinast alone | fold change in fluorescence relative to zaprinast alone (10 µM) |
| --- | --- | --- |
| CCOc1ccc2c(-c3ccnc(Nc4cccc(C(F)(F)F)c4)n3)cnn2n1 [GW811761X] | 1.047 | – |
| O=C(c1ccc(-c2cc(-c3cn[nH]c3-c3ccccn3)ccn2)cc1)N1CCOCC1 [GW812171X] | 1.17 | – |
| CN(c1ccc2c(c1)nc(NCc1ccc(F)cc1)n2C)c1ccnc(Nc2ccc(CS(C)(=O)=O)cc2)n1 [GW813244A] | 1.154 | – |
| COc1cccc(-n2cnc3c(N/N=C/c4ccncc4)ncnc32)c1 [GW813360X] | 1.13 | – |
| COc1cccc(-c2c[nH]c3c(N/N=C/c4ccncc4)ncnc23)c1 [GW814408X] | 0.6391 | – |
| COc1cccc(-n2ncc3c(N/N=C/c4cccc(F)c4)ncnc32)c1 [GW817394X] | 1.201 | – |
| COc1cccc(-n2ncc3c(N/N=C/c4ccc(F)cc4)ncnc32)c1 [GW817396X] | 1.185 | – |
| CCCNC(=O)Nc1ccc(N(C)c2ccnc(NC3CC3)n2)cc1 [GW818933X] | 0.4908 | – |
| c1ccc(-c2ccc3c(-c4ccnc(Nc5ccc6c(c5)OCCO6)n4)cnn3n2)cc1 [GW818941X] | 0.7769 | – |
| FC(F)(F)c1cccc(Nc2nccc(-c3cnn4nc(-c5ccccc5)ccc34)n2)c1 [GW819077X] | 0.1467 | – |
| Cc1ccc(-c2cc3c(NC(=O)C4CC4)ncnc3o2)cc1 [GW819230X] | 1.19 | – |
| Cc1ccc2c(-c3ccnc(Nc4ccc(C(F)(F)F)cc4)n3)cnn2n1 [GW819776X] | 1.244 | – |
| Cc1ccc(C(=O)NC2CC2)cc1-c1ccc2[nH]ncc2c1 [GW820759X] | 1.265 | – |
| O=C(NCc1cccs1)c1cc(C(=O)c2c(Cl)cccc2Cl)c[nH]1 [GW823670X] | 1.033 | – |
| NS(=O)(=O)c1cccc(Nc2cc(-c3ccc(F)cc3)n[nH]2)c1 [GW824645A] | – | 1.167 and 1.492 |
| COc1ccc(-c2nn3ncccc3c2-c2ccnc(Nc3cccc(C(F)(F)F)c3)n2)cc1 [GW827105X] | 0.7957 | – |
| COc1ccc(-c2nn3ncccc3c2-c2ccnc(Nc3ccc4c(c3)OCCO4)n2)cc1 [GW827106X] | 0.9888 | – |
| CN1CCN(Cc2ccc(NC(=O)Nc3ccc(N(C)c4ccnc(Nc5ccc(CS(C)(=O)=O)cc5)n4)cc3)cc2)CC1 [GW827654A] | 1.248 | – |
| FC(F)(F)c1ccc(-c2nn3ncccc3c2-c2ccnc(Nc3cccc(C(F)(F)F)c3)n2)cc1 [GW828205X] | 0.4128 | – |
| FC(F)(F)c1ccc(-c2nn3ncccc3c2-c2ccnc(Nc3ccccc3)n2)cc1 [GW828206X] | 0.303 | – |
| Clc1ccc(-c2nn3ncccc3c2-c2ccnc(Nc3ccccc3)n2)cc1 [GW829055X] | 1.188 | – |
| Fc1ccc(Nc2nccc(-c3c(-c4ccc(Cl)cc4)nn4ncccc34)n2)cc1F [GW829058X] | 1.046 | – |
| Clc1ccc(-c2nn3ncccc3c2-c2ccnc(Nc3ccc4c(c3)OCCO4)n2)cc1 [GW829116X] | 0.6156 | – |

| SMILES | fold change in fluorescence relative to zaprinast alone | fold change in fluorescence relative to zaprinast alone (10 µM) |
| --- | --- | --- |
| FC(F)(F)c1ccc(-c2nn3ncccc3c2-c2ccnc(Nc3ccc(Cl)c(C(F)(F)F)c3)n2)cc1 [GW829350X] | 0.9679 | – |
| FC(F)(F)c1cc(Nc2nccc(-c3c(-c4ccc(Cl)cc4)nn4ncccc34)n2)ccc1Cl [GW829351X] | 0.8408 | – |
| COc1cccc(/C=N/Nc2ncnc3c2cnn3-c2cccc(OC)c2)c1 [GW829874X] | 1.214 | – |
| COc1cccc(-n2ncc3c(N/N=C/c4ccc(C)cc4)ncnc32)c1 [GW829877X] | 1.18 | – |
| CN1CCN(C(=O)c2ccc(NC(=O)Nc3ccc(N(C)c4ccnc(Nc5ccc(CS(C)(=O)=O)cc5)n4)cc3)cc2)CC1 [GW830263A] | 1.245 | – |
| CN(c1ccc(NC(=O)NCCN2CCOCC2)cc1)c1ccnc(Nc2ccc(CS(C)(=O)=O)cc2)n1 [GW830365A] | 1.217 | – |
| CN(c1ccc(NC(=O)Nc2cccc(Cl)c2)cc1)c1ccnc(N)n1 [GW830707A] | 0.7635 | – |
| CN(c1ccc(NC(=O)N2CCN(CCCN3CCOCC3)CC2)cc1)c1ccnc(Nc2ccc(CS(C)(=O)=O)cc2)n1 [GW830899A] | 1.092 | – |
| CN(C)CCNC(=O)Nc1ccc(N(C)c2ccnc(Nc3ccc(CS(C)(=O)=O)cc3)n2)cc1 [GW830900A] | 1.233 | – |
| NS(=O)(=O)c1ccc(Nc2cc(-c3cccc(O)c3)n[nH]2)cc1 [GW831090X] | 1.167 | – |
| NS(=O)(=O)c1ccc(Nc2cc(-c3ccc(O)c(F)c3)n[nH]2)cc1 [GW831091X] | 1.195 | – |
| Cc1ccc2c(-c3ccnc(Nc4ccc5c(c4)OCCO5)n3)c(-c3ccc(C(F)(F)F)cc3)nn2n1 [GW832467X] | 0.6662 | – |
| CN(C)CCOc1ccc(-c2cc(-c3cn[nH]c3-c3ccccn3)ccn2)cc1 [GW835314X] | 0.7262 | – |
| COc1cc(Nc2ncc3c(C)nc(-c4cccc(C(F)(F)F)c4)n3n2)cc(OC)c1OC [GW837331X] | 0.3788 | – |
| Cc1ccc(-n2nc(C(C)(C)C)cc2NC(=O)Nc2ccc(OCCN3CCOCC3)c3ccccc23)cc1 [GW839464X] | 1.059 | – |
| COc1cc2ncn(-c3cc(OCc4ccccc4C(F)(F)F)c(C(N)=O)s3)c2cc1OC [GW843682X] | 1.213 | – |
| NC(=O)c1sc(-n2cnc3ccc(C(F)(F)F)cc32)cc1OCc1ccccc1Br [GW853606X] | 1.175 | – |
| CC(C)(C)c1ccc2nccc(Nc3cccc(O)c3)c2c1 [GW856795X] | 0.1562 | – |
| Nc1ncc(-c2cccc(S(N)(=O)=O)c2)c2scc(-c3ccc(F)c(Cl)c3)c12 [GW856804X] | 0.8933 | – |
| Cc1ccc(O)cc1Nc1ccnc2ccc(C(C)(C)C)cc12 [GW856805X] | 0.3414 | – |
| COc1cc(Nc2ncc3c(C)nc(-c4cccc(Oc5ccccc5)c4)n3n2)cc(OC)c1OC [GW861893X] | 0.7386 | – |
| COc1cc(Nc2ncc3c(C)nc(-c4cc5ccccc5[nH]4)n3n2)cc(OC)c1OC [GW869516X] | 0.08874 | – |
| Cc1cccc(-c2nc(Nc3ccncc3)c3sccc3n2)n1 [GW869641X] | 1.179 | – |
